{"source": "patent US20220118002A1", "about": "“COMPOSITIONS OF MATTER WITH ACTIVITY TO REMOVE LIPOFUSCIN FROM RETINAL CELLS” (Cornell University, priority 2019, published 2022)", "key": {"formation of new LB": {"tested_on": "formation of new LB", "conditions": "oral, animals; cited from earlier work"}, "[1]": {"tested_on": "patients diagnosed with Stargardt or AMD", "conditions": "cited from earlier work"}, "[2]": {"tested_on": "Human retinal pigment epithelium (RPE) cultured cells, ARPE-19, pre-loaded with A2E", "assay": "A2E (lipofuscin bisretinoid) removal assay, fluorescence plate reader", "type": "cell-based", "conditions": "for removal of lipofuscin bisretinoids (A2E) from retinal cells: 4 mM cyclodextrin, 48 hrs, cells pre-loaded with 5 μM A2E, FIG. 2"}, "[3]": {"tested_on": "lipofuscin (LB) in RPE of DKO mice (ABCA4 and RDH8 mutations)", "assay": "In vivo LB removal from eyes by intravitreal injection, RPE-eyecup autofluorescence", "parameters": "species or system mouse", "conditions": "FIG. 9; for reduction of the amount of lipofuscin vs vehicle (significance, unpaired T-test): two intravitreal injections one week apart, same doses; for total LB extracted from retinas: two intravitreal injections one week apart: 2 μl 100 mM MβCD, 1 μl 500 mM HPβCD or SBE-βCD, eyes harvested 4 days after second injection"}, "visual acuity of mice": {"tested_on": "visual acuity of mice", "assay": "Visual acuity, Spatial Frequency (SF) response by OptoMotry", "conditions": "intravitreal, twice, one week apart, both eyes: 2 μl 100 mM M-βCD, 1 μl 500 mM HP-βCD or SBE-βCD, FIGS. 10A-10B"}, "[4]": {"tested_on": "Epithelial cells pre-loaded with A2E", "assay": "Stoichiometric distribution of A2E between cell lysates and supernatants", "type": "cell-based", "conditions": "12.5 mM, 4 hrs, serum free media, FIG. 7"}, "[5]": {"tested_on": "photoreceptor layer (ONL) / retina", "assay": "Retina morphometry and histology (ONL thickness, H&E cross sections)", "type": "in vivo, mouse", "conditions": "intravitreal treatment", "protocol": "Morphometric analysis comparing the thickneness of the outer nuclear layer (ONL) in control and SBE-BCD treated animals was performed. The layer of photoreceoptors was selected using Photoshop and ImageJ and thickness was measured.\nStitched images were created using ZEN Blue (Zeiss) from individual fields obtained by color microscopy of hematoxylin and eosin stained paraffin-embedded cross sections of retinas from mice treated with 1 μl vehicle or Sulfo Butyl β-Cyclodextrin.\n2 μl 100 mM M-βCD; 1 μl 500 mM HP-3CD; or 1 μl 500 mM SBE-βCD were injected twice, one-week apart, in both eyes and 2 μl H2O were injected intravitreally to age matched controls. To evaluate the visual toxicity of the treatment, the Spatial Frequency response (SF) was determined just before each injection and before sacrificing the mouse, i.e., four days after the second injection. SF is a cone-mediated visual response measured using an OptoMotry (OMT) chamber. Briefly, the mouse standing unrestrained on an elevated platform is surrounded by computer monitors that create a virtual cylinder with black bars on white background."}, "[6]": {"tested_on": "lipofuscin and A2E accumulation in ABCA4-/- mouse", "conditions": "cited from earlier work"}, "A2E-loaded RPE cultures": {"tested_on": "A2E-loaded RPE cultures", "assay": "Fluorescence microscopy of LB removal from A2E-loaded cells", "type": "cell-based, human", "protocol": "[…] At the end of the incubation period, fluorescence of A2E inside the cells was monitored by fluorescence microscopy at 100× magnification. Cells were stained with Hoechst stain to visualize nuclei of cells that contained A2E.\nFIGS. 4A-4B show the removal of LB with methyl β-Cyclodextrin as determined by fluorescence microscopy. […] Cells were stained with Hoechst stain to visualize nuclei. Fluorescence of A2E inside the cells (unextracted cells) was monitored by fluorescence microscopy at 100× magnification.\nUntreated A2E-loaded RPE cultures served as negative controls. A2E-loaded RPE cultures were treated with 7.5 mM of the indicated β-Cyclodextrin compound for 48 hrs. For each cyclodextrin, three separate lots were tested. Lipofuscin (yellow) is visualized by fluorescence microscopy (488 nm/600 nm) using low magnification (10×) objective to capture a large number of cells.\nFluorescence microscopy: LBs are auto-fluorescent molecules on account of the abundant conjugated double bonds in their hydrophobic arms. When excited at 430 nm (blue light) they emit yellow-orange fluorescence peaking at 610 nm. The intensity of the fluorescence is proportional to their amounts. Hoechst blue fluorescence dye was used to stain the nucleus of cells treated with cyclodextrins. […] Each dose was assayed in triplicated and ten random fields were evaluated per well. […]"}, "[7]": {"tested_on": "lipofuscin in RPE cells of monkey retinas", "conditions": "oral, one year; cited from earlier work"}, "[8]": {"conditions": "long-term oral administration, ABCA4-/-"}}, "data": [{"compound": "CC1=C(/C=C/C(C)=C/C=C/C(C)=C/C(=O)Nc2ccc(O)cc2)C(C)(C)CCC1", "note": "[fenretinide]", "values": [{"measurement": "formation of new LB", "setting": "formation of new LB", "result": "effective at slowing down the formation of new LB"}, {"measurement": "side effects", "setting": "[1]; oral", "result": "night blindness, and mild reversible skin-dryness"}, {"measurement": "therapeutic effect in patients", "setting": "[1]; patients already diagnosed with Stargardt or AMD", "result": "did not confer a significant therapeutic effect"}]}, {"compound": "OC[C@H]1O[C@@H]2O[C@H]3[C@H](O)[C@@H](O)[C@@H](O[C@H]4[C@H](O)[C@@H](O)[C@@H](O[C@H]5[C@H](O)[C@@H](O)[C@@H](O[C@H]6[C@H](O)[C@@H](O)[C@@H](O[C@H]7[C@H](O)[C@@H](O)[C@@H](O[C@H]1[C@H](O)[C@H]2O)O[C@@H]7CO)O[C@@H]6CO)O[C@@H]5CO)O[C@@H]4CO)O[C@@H]3CO", "note": "[α-Cyclodextrin, reference compound]", "values": [{"measurement": "removal of lipofuscin bisretinoids (A2E) from retinal cells", "setting": "[2]", "result": "did not extract A2E"}]}, {"compound": "CC(O)COC[C@H]1O[C@@H]2O[C@H]3[C@H](O)[C@@H](O)[C@@H](O[C@H]4[C@H](O)[C@@H](O)[C@@H](O[C@H]5[C@H](O)[C@@H](O)[C@@H](O[C@H]6[C@H](O)[C@@H](O)[C@@H](O[C@H]7[C@H](O)[C@@H](O)[C@@H](O[C@H]8[C@H](O)[C@@H](O)[C@@H](O[C@H]1[C@H](O)[C@H]2O)O[C@@H]8COCC(C)O)O[C@@H]7COCC(C)O)O[C@@H]6COCC(C)O)O[C@@H]5COCC(C)O)O[C@@H]4COCC(C)O)O[C@@H]3COCC(C)O", "note": "(stereo partly drawn) [2-Hydroxy Propyl β-Cyclodextrin, 2-hydroxypropyl beta-Cyclodextrin]", "values": [{"measurement": "reduction of the amount of lipofuscin vs vehicle (significance, unpaired T-test)", "setting": "[3]", "result": "effective"}, {"measurement": "visual acuity (Spatial Frequency response)", "setting": "visual acuity of mice", "result": "some animals showing significant impairment of visal response"}, {"measurement": "distribution of A2E fluorescence between cells and supernatants", "setting": "[4]", "result": "all A2E fluorescence that was absent from cells was present in supernatants"}, {"measurement": "removal of lipofuscin bisretinoids (A2E) from retinal cells", "setting": "[2]", "result": "promoted removal of lipofuscin bisretinoids from retinal cells"}]}, {"compound": "COC[C@H]1O[C@@H]2O[C@H]3[C@H](O)[C@@H](OC)[C@@H](O[C@H]4[C@H](O)[C@@H](OC)[C@@H](O[C@H]5[C@H](O)[C@@H](OC)[C@@H](O[C@H]6[C@H](O)[C@@H](OC)[C@@H](O[C@H]7[C@H](O)[C@@H](OC)[C@@H](O[C@H]8[C@H](O)[C@@H](OC)[C@@H](O[C@H]1[C@H](O)[C@H]2OC)O[C@@H]8COC)O[C@@H]7COC)O[C@@H]6COC)O[C@@H]5COC)O[C@@H]4COC)O[C@@H]3COC", "note": "[2,6-di-O-methyl-β-Cyclodextrin, Heptakis (2,6-di-O-Methyl) β-Cyclodextrin, reference compound]", "values": [{"measurement": "removal of lipofuscin bisretinoids (A2E) from retinal cells", "setting": "[2]", "result": "not effective in promoting LB removal"}]}, {"compound": "Sulfobutyl ether β-Cyclodextrin [Sulfo Butyl Ether β-Cyclodextrin]", "values": [{"measurement": "reduction of the amount of lipofuscin vs vehicle (significance, unpaired T-test)", "setting": "[3]", "result": "effective"}, {"measurement": "total LB extracted from retinas", "setting": "[3]", "result": 42.6, "unit": "%"}, {"measurement": "overall structure of the retinas", "setting": "[5]; H&E cross sections, FIG. 11B", "result": "remained intact"}, {"measurement": "integrity of the photoreceptor layer (ONL)", "setting": "[5]; ONL thickness, FIG. 11A", "result": "did not compromise the integrity of the photoreceptor layer (ONL)"}, {"measurement": "visual acuity (Spatial Frequency response)", "setting": "visual acuity of mice", "result": "well tolerated showing indistinguishable SF from water treated and non-injected negative controls"}, {"measurement": "distribution of A2E fluorescence between cells and supernatants", "setting": "[4]", "result": "all A2E fluorescence that was absent from cells was present in supernatants"}, {"measurement": "removal of lipofuscin bisretinoids (A2E) from retinal cells", "setting": "[2]", "result": "promoted removal of lipofuscin bisretinoids from retinal cells"}]}, {"compound": "OC[C@H]1O[C@@H]2O[C@H]3[C@H](O)[C@@H](O)[C@@H](O[C@H]4[C@H](O)[C@@H](O)[C@@H](O[C@H]5[C@H](O)[C@@H](O)[C@@H](O[C@H]6[C@H](O)[C@@H](O)[C@@H](O[C@H]7[C@H](O)[C@@H](O)[C@@H](O[C@H]8[C@H](O)[C@@H](O)[C@@H](O[C@H]9[C@H](O)[C@@H](O)[C@@H](O[C@H]1[C@H](O)[C@H]2O)O[C@@H]9CO)O[C@@H]8CO)O[C@@H]7CO)O[C@@H]6CO)O[C@@H]5CO)O[C@@H]4CO)O[C@@H]3CO", "note": "[gamma-cyclodextrin, Gamma-Cyclodextrin, reference compound]", "values": [{"measurement": "removal of lipofuscin bisretinoids (A2E) from retinal cells", "setting": "[2]", "result": "did not extract A2E"}]}, {"compound": "[2H]C([2H])([2H])C(/C=C/C=C(C)/C=C/C1=C(C)CCCC1(C)C)=C\\COC(C)=O", "note": "[ALK-001, deuterated vitamin A]", "values": [{"measurement": "visual function by electroretinogram", "setting": "[6]; ABCA4-/- mouse model", "result": "prevented the gradual loss of visual function"}, {"measurement": "reduction of accumulation of A2E", "setting": "[6]; [8]", "result": 80, "unit": "%"}, {"measurement": "reduction of accumulation of lipofuscin", "setting": "[6]; [8]", "result": 70, "unit": "%"}]}, {"compound": "Methyl β-Cyclodextrin", "values": [{"measurement": "reduction of the amount of lipofuscin vs vehicle (significance, unpaired T-test)", "setting": "[3]", "result": "did not significantly reduce the amount of lipofuscin"}, {"measurement": "total LB extracted from retinas", "setting": "[3]", "result": 18.2, "unit": "%"}, {"measurement": "localisation of LB after treatment", "setting": "A2E-loaded RPE cultures; 7.5 mM, 100× objective, FIGS. 4A-4B", "result": "LB was expelled outside the cells"}, {"measurement": "LB fluorescence in cells after treatment", "setting": "A2E-loaded RPE cultures; 24 hours, 100× magnification, FIG. 3B", "result": "completely devoid of the turquoise fluorescence"}, {"measurement": "distribution of A2E fluorescence between cells and supernatants", "setting": "[4]", "result": "all A2E fluorescence that was absent from cells was present in supernatants"}, {"measurement": "removal of lipofuscin bisretinoids (A2E) from retinal cells", "setting": "[2]", "result": "promoted removal of lipofuscin bisretinoids from retinal cells"}, {"measurement": "dose that removed most of the detectable LB deposits", "setting": "[2]; 24 hrs, FIG. 3A", "result": "10 to 20", "unit": "µM"}, {"measurement": "dose dependence of A2E removal", "setting": "[2]; 24 hrs, increasing doses, FIG. 3A", "result": "dose-dependent"}, {"measurement": "A2E removal compared to untreated control at lowest tested dose", "setting": "[2]; 24 hrs, lowest tested dose, FIG. 3A", "result": "about 75%"}]}, {"compound": "COC[C@H]1O[C@@H]2O[C@H]3[C@H](OC)[C@@H](OC)[C@@H](O[C@H]4[C@H](OC)[C@@H](OC)[C@@H](O[C@H]5[C@H](OC)[C@@H](OC)[C@@H](O[C@H]6[C@H](OC)[C@@H](OC)[C@@H](O[C@H]7[C@H](OC)[C@@H](OC)[C@@H](O[C@H]8[C@H](OC)[C@@H](OC)[C@@H](O[C@H]1[C@H](OC)[C@H]2OC)O[C@@H]8COC)O[C@@H]7COC)O[C@@H]6COC)O[C@@H]5COC)O[C@@H]4COC)O[C@@H]3COC", "note": "[2,3,6-tri-O-methyl-β-Cyclodextrin, Heptakis (2,3,6-tri-O-Methyl) β-Cyclodextrin, reference compound]", "values": [{"measurement": "removal of lipofuscin bisretinoids (A2E) from retinal cells", "setting": "[2]", "result": "not effective in promoting LB removal"}]}, {"compound": "COCCO[C@@H]1c2ccn3c(C)c(C)nc3c2N[C@H](c2ccccc2)[C@H]1O", "note": "[soprazan]", "values": [{"measurement": "elimination of lipofuscin from RPE cells", "setting": "[7]", "result": "Successful elimination of lipofuscin from RPE cells"}]}, {"compound": "OC[C@H]1O[C@@H]2O[C@H]3[C@H](O)[C@@H](O)[C@@H](O[C@H]4[C@H](O)[C@@H](O)[C@@H](O[C@H]5[C@H](O)[C@@H](O)[C@@H](O[C@H]6[C@H](O)[C@@H](O)[C@@H](O[C@H]7[C@H](O)[C@@H](O)[C@@H](O[C@H]8[C@H](O)[C@@H](O)[C@@H](O[C@H]1[C@H](O)[C@H]2O)O[C@@H]8CO)O[C@@H]7CO)O[C@@H]6CO)O[C@@H]5CO)O[C@@H]4CO)O[C@@H]3CO", "note": "[β-Cyclodextrin, reference compound]", "values": [{"measurement": "removal of lipofuscin bisretinoids (A2E) from retinal cells", "setting": "[2]", "result": "did not extract A2E"}]}]}
